We go through 26 compounds from patent US20240132450A1, “MODULATORS OF G PROTEIN-COUPLED RECEPTOR 88” (ACADIA Pharmaceuticals Inc., priority 2020, published 2024).

Like-named read-outs stand apart in the source and are kept apart here.

Data set [1] addresses T1, dopamine uptake transporter (rat DAT) (Rattus norvegicus, UniProt P23977).
T1 construct: is determined in rat striatum synaptosomes following [^3H]dopamine scintillation counting; from tissue; host or cells: rat striatum synaptosomes
Nature of the data set: Dopamine transporter uptake assay. The class given is biochemical. The conditions noted are these: rat striatum synaptosomes, [3H]dopamine.

For the next data set, the target named is hGPR88 receptor (Homo sapiens, UniProt Q9GZN0). In words: hGPR88-HEK cAMP accumulation assay. The settings on record: HEK-293 cells expressing human recombinant GPR88, forskolin 200 nM, High/Medium/Low bands. Background: Cyclic AMP is a second messenger, typically raised through Gs and lowered through Gi signalling.
Chain of hGPR88 receptor (Q9GZN0 whole entry): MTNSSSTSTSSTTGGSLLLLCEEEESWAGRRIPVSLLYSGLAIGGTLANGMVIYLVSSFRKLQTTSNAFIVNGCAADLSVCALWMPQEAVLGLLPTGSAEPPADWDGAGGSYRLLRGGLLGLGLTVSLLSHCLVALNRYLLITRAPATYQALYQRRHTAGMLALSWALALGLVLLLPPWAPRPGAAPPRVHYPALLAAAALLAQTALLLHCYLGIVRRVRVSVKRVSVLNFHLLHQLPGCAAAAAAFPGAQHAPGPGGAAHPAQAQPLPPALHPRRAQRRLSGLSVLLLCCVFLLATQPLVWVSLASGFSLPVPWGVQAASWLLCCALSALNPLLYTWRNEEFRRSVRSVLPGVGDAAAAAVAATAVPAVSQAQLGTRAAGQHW
Data set [2] in a line: Hepatocyte stability (mouse). The class given is in vitro ADME. The conditions noted are these: test compound 3 μM, 60 min; for hepatocyte CLint at 3 μM: mouse, cryopreserved pooled hepatocytes in suspension, read-out: Mouse heps Clint; for Mouse heps Clint: mouse cryopreserved hepatocytes. The protocol: (iii) Hepatocyte Stability (Human, Mouse, Rat or Dog)
Test compound (3 μM) is incubated with cryopreserved hepatocytes in suspension. Samples are removed at 6 time points over the course of a 60 min experiment and test compound is analysed by LC-MS/MS. An intrinsic clearance value (CLint) with standard error and half-life (t %) are calculated. Cryopreserved pooled hepatocytes are stored in liquid nitrogen prior to use. […] The final incubation volume is 500 μL. A control incubation is included for each compound tested where lysed cells are added instead of viable cells. Two control compounds are included with each species.
The reactions are stopped by transferring 50 μL of incubate to 100 μL methanol containing internal standard at the appropriate time points. The control (lysed cells) is incubated for 60 min only. The termination plates are centrifuged at 2500 rpm at 4° C. for 30 min to precipitate the protein. Following protein precipitation, the sample supernatants are combined in cassettes of up to 4 compounds and analysed using generic LC-MS/MS conditions. From a plot of In peak area ratio (compound peak area/internal standard peak area) against time, the gradient of the line is determined. Subsequently, half-life (t %) and intrinsic clearance (CLint) are calculated using the equations below: […]

The mark [3] stands for this setting: read-out: GRP88 agonist activity (EC50).

As a reminder, the EC50 is the concentration needed to bring the measured effect to its halfway point.

T1 sequence (P23977 whole entry): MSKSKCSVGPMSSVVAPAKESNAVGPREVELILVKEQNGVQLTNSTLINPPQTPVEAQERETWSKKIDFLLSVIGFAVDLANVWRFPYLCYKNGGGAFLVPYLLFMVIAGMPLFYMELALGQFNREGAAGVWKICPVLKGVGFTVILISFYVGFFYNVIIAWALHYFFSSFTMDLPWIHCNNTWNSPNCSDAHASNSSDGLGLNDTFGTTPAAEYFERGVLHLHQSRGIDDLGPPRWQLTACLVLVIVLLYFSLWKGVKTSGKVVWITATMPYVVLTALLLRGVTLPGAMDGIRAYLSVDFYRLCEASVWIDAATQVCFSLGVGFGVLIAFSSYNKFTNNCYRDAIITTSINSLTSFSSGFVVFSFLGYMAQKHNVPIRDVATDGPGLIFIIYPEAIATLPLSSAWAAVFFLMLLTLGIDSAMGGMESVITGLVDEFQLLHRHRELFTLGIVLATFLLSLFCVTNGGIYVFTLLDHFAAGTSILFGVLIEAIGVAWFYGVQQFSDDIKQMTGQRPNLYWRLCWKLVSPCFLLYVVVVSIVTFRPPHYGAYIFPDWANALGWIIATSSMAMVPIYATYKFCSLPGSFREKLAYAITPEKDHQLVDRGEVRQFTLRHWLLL

With `CN(C)c1ncc(-c2ccc(NC(=O)C(C)(C)Oc3ccc(F)cc3)cc2)cn1` [Example 49, N-(4-(2-(dimethylamino)pyrimidin-5-yl)phenyl)-2-(4-fluorophenoxy)-2-methylpropanamide], the “Inhibition of dopamine uptake transporter (% inhibition at 10 μM compound)” value (shortened to “Inhibition … (% inhibition at 10 μM compound)”) in data set [1] is 0 % inhibition. In addition, the half-maximal effective concentration (EC50) at hGPR88 receptor (GRP88 agonist activity (EC50)) is < 1 µM.

Consider `COCc1ccc(-c2ccc(NC(=O)C3CC3c3ccccn3)nc2)cc1` (racemic) [Example 45, (rac-trans)-N-(5-(4-(methoxymethyl)phenyl)pyridin-2-yl)-2-(pyridin-2-yl)cyclopropane-1-carboxamide], for which, in data set [1], the “Inhibition … (% inhibition at 10 μM compound)” value worked out at 28 % inhibition.

Consider `CCOc1ccc(-c2ccc(NC(=O)C3CC3c3ccccn3)cc2)cn1` (racemic) [Example 75, (rac-trans)-N-(4-(6-ethoxypyridin-3-yl)phenyl)-2-(pyridin-2-yl)cyclopropane-1-carboxamide], for which, in data set [1] (10 µM), the “Inhibition … (% inhibition at 10 μM compound)” value is 5 % inhibition. In addition, the EC50 on hGPR88 receptor (setting [3]) lay in the range of 1 to 5 µM.

Take `O=C(Nc1ccc(-c2ccc(OC3CC3)cc2)cc1)C1CC1c1ccccn1` (racemic) [Example 87, (rac-trans)-N-(4′-cyclopropoxy-[1,1′-biphenyl]-4-yl)-2-(pyridin-2-yl)cyclopropane-1-carboxamide]: the hepatocyte CLint at 3 μM in data set [2] amounted to 31 µL/min/1e6 cells. Also, the “Inhibition … (% inhibition at 10 μM compound)” value in data set [1] amounted to 1 % inhibition. Also, the EC50 at hGPR88 receptor (GRP88 agonist activity (EC50)) was < 1 µM.

As for `CN(C)c1ccc(-c2ccc(NC(=O)C(C)(C)Oc3ccc(F)cc3)cc2)cn1` [Example 79, N-(4-(6-(dimethylamino)pyridin-3-yl)phenyl)-2-(4-fluorophenoxy)-2-methylpropanamide], the “Inhibition … (% inhibition at 10 μM compound)” value in data set [1] amounted to 21 % inhibition. In addition, at hGPR88 receptor (GRP88 agonist activity (EC50)), the EC50 is < 1 µM.

Turning to `CCOc1ccc(-c2ccc(NC(=O)C(C)(C)Oc3ccc(F)cc3)cc2)cn1` [Example 26, N-(4-(6-ethoxypyridin-3-yl)phenyl)-2-(4-fluorophenoxy)-2-methylpropanamide], in data set [2], the hepatocyte CLint at 3 μM was 70 µL/min/1e6 cells. Also, the “Inhibition … (% inhibition at 10 μM compound)” value in data set [1] came out at 7 % inhibition. In addition, the EC50 at hGPR88 receptor (GRP88 agonist activity (EC50)) is < 1 µM.

In the case of `COCc1ccc(-c2ccc(NC(=O)C3CC3c3ccccn3)cc2)cc1` (racemic) [Example 18, N-(4′-(methoxymethyl)-[1,1′-biphenyl]-4-yl)-2-(pyridin-2-yl)cyclopropane-1-carboxamide], the “Inhibition … (% inhibition at 10 μM compound)” value in data set [1] (10 µM) is 0 % inhibition.

For the compound `CS(=O)(=O)c1ccc(-c2ccc(NC(=O)C3CC3c3ccccn3)cc2)cc1` (racemic) [Example 85, (rac-trans)-N-(4′-(methylsulfonyl)-[1,1′-biphenyl]-4-yl)-2-(pyridin-2-yl)cyclopropane-1-carboxamide], in data set [2], the hepatocyte CLint at 3 μM worked out at 14 µL/min/1e6 cells. Besides, the “Inhibition … (% inhibition at 10 μM compound)” value in data set [1] is listed as 12 % inhibition. Also, the EC50 on hGPR88 receptor (GRP88 agonist activity (EC50)) was < 1 µM.

For `CCOc1ccc(-c2ccc(NC(=O)C3CC3c3ccccn3)cc2)cn1` (racemic) [Example 76, (rac-trans)-N-(4-(6-ethoxypyridin-3-yl)phenyl)-2-(pyridin-2-yl)cyclopropane-1-carboxamide], the “Mouse heps Clint” value in data set [2] worked out at 30 μL/min/10^6 cells. Also, the “Inhibition … (% inhibition at 10 μM compound)” value in data set [1] (10 µM) is reported as 7 % inhibition. The EC50 at hGPR88 receptor (setting [3]) lay in the range of 1 to 5 µM.

For `CCCc1ccc(C23CC(NC(=O)C4CC4c4ccccn4)(C2)C3)cc1` (racemic) [Example 8, (rac-trans)-N-(3-(4-propylphenyl)bicyclo[1.1.1]pentan-1-yl)-2-(pyridin-2-yl)cyclopropane-1-carboxamide], the hepatocyte CLint at 3 μM in data set [2] worked out at 55 µL/min/1e6 cells. The EC50 at hGPR88 receptor (GRP88 agonist activity (EC50)) was < 1 µM.

As for `COCc1ccc([C@]23C[C@](NC(=O)C(C)(C)Oc4ccc(F)cc4)(C2)C3)cc1` [Example 135, 2-(4-fluorophenoxy)-N-(3-(4-(methoxymethyl)phenyl)bicyclo[1.1.1]pentan-1-yl)-2-methylpropanamide], in data set [1], the “Inhibition … (% inhibition at 10 μM compound)” value was found to be 8 % inhibition. In addition, at hGPR88 receptor (GRP88 agonist activity (EC50)), the EC50 was in the range of 1 to 5 µM.

Take `COCc1ccc(-c2ccc(NC(=O)C(C)(C)Oc3ccc(F)cc3)cc2)cc1` [Example 2, 2-(4-fluorophenoxy)-N-(4′-(methoxymethyl)-[1,1′-biphenyl]-4-yl)-2-methylpropanamide]: in data set [2], the hepatocyte CLint at 3 μM is 54 µL/min/1e6 cells. Also, the “Inhibition … (% inhibition at 10 μM compound)” value in data set [1] is given as 3 % inhibition. For the same compound, the EC50 on hGPR88 receptor (GRP88 agonist activity (EC50)) is < 1 µM.

Turning to `COCc1ccc([C@]23C[C@](NC(=O)C4CC4c4ccccn4)(C2)C3)nc1` (mixture of isomers) [Example 136, N-(3-(5-(methoxymethyl)pyridin-2-yl)bicyclo[1.1.1]pentan-1-yl)-2-(pyridin-2-yl)cyclopropane-1-carboxamide], the “Inhibition … (% inhibition at 10 μM compound)” value in data set [1] is recorded as 2 % inhibition. For the same compound, the EC50 at hGPR88 receptor (GRP88 agonist activity (EC50)) is > 5 µM.

As to `CCOc1ccc(OC(C)(C)C(=O)Nc2ccc(-c3ccc(COC)cc3)cc2)cc1` [Example 70, 2-(4-ethoxyphenoxy)-N-(4′-(methoxymethyl)-[1,1′-biphenyl]-4-yl)-2-methylpropanamide], the hepatocyte CLint at 3 μM in data set [2] amounted to 74 µL/min/1e6 cells. In addition, the EC50 at hGPR88 receptor (GRP88 agonist activity (EC50)) is < 1 µM.

With `COCc1ccc(-c2ccc(N(C)C(=O)C(C)(C)Oc3ccc(F)cc3)cc2)cc1` [Example 13, 2-(4-fluorophenoxy)-N-(4′-(methoxymethyl)-[1,1′-biphenyl]-4-yl)-N,2-dimethylpropanamide], the hepatocyte CLint at 3 μM in data set [2] is 90 µL/min/1e6 cells. At hGPR88 receptor (GRP88 agonist activity (EC50)), the EC50 lay within 1 to 5 µM.

On to `O=C(Nc1ccc(-c2ccc(CN3CCOCC3)cc2)cc1)C1CC1c1ccccn1` (single isomer, unassigned) [Example 78, (1R*,2R*)-N-(4′-(morpholinomethyl)-[1,1′-biphenyl]-4-yl)-2-(pyridin-2-yl)cyclopropane-1-carboxamide], for which, in data set [1], the “Inhibition … (% inhibition at 10 μM compound)” value is 17 % inhibition.

Consider `COCc1ccc(-c2ccc3c(c2)CCN3C(=O)C(C)(C)Oc2ccc(F)cc2)cc1` [Example 32, 2-(4-fluorophenoxy)-1-(5-(4-(methoxymethyl)phenyl)indolin-1-yl)-2-methylpropan-1-one], for which the hepatocyte CLint at 3 μM in data set [2] was 65 µL/min/1e6 cells. For the same compound, at hGPR88 receptor (GRP88 agonist activity (EC50)), the EC50 is 1 to 5 µM.

In the case of `COCc1ccc(-c2ccc(NC(=O)C3CC3c3ccccn3)nc2)cc1` (racemic) [Example 121, (rac-trans)-N-(5-(4-(methoxymethyl)phenyl)pyridin-2-yl)-2-(pyridin-2-yl)cyclopropane-1-carboxamide], the hepatocyte CLint at 3 μM in data set [2] turned out to be 30 µL/min/1e6 cells. Besides, the EC50 on hGPR88 receptor (setting [3]) was 1 to 5 µM.

In the case of `COCc1ccc(-c2ccc(NC(=O)C3CC3c3ccccn3)cc2)cc1` (single isomer, unassigned) [Example 18, N-(4′-(methoxymethyl)-[1,1′-biphenyl]-4-yl)-2-(pyridin-2-yl)cyclopropane-1-carboxamide], the hepatocyte CLint at 3 μM in data set [2] was 70 µL/min/1e6 cells. For the same compound, the EC50 at hGPR88 receptor (GRP88 agonist activity (EC50)) was < 1 µM.

On to `COCc1ccc(-c2ccc(NC(=O)C(C)(C)Oc3ccc(C#N)cc3)cc2)cc1` [Example 68, 2-(4-cyanophenoxy)-N-(4′-(methoxymethyl)-[1,1′-biphenyl]-4-yl)-2-methylpropanamide], for which the hepatocyte CLint at 3 μM in data set [2] was 37 µL/min/1e6 cells. Moreover, at hGPR88 receptor (GRP88 agonist activity (EC50)), the EC50 is < 1 µM.

`CCCc1ccc([C@]23C[C@](NC(=O)C4CC4c4ccccn4)(C2)C3)nc1` (mixture of isomers) [Example 137, N-(3-(5-propylpyridin-2-yl)bicyclo[1.1.1]pentan-1-yl)-2-(pyridin-2-yl)cyclopropane-1-carboxamide]: the “Inhibition … (% inhibition at 10 μM compound)” value in data set [1] is recorded as 10 % inhibition. Further, at hGPR88 receptor (GRP88 agonist activity (EC50)), the EC50 lay in the range of 1 to 5 µM.

Turning to `CCCc1ccc(-c2ccc(N(C[C@@H](N)[C@@H](C)CC)C(=O)[C@@H]3C[C@H]3c3ccccn3)cc2)cc1` [Literature comparative 2, 2-PCCA, reference compound], in data set [1], the “Inhibition … (% inhibition at 10 μM compound)” value worked out at 90 % inhibition.

With `COCc1ccc(-c2ccc(NC(=O)C3(Oc4ccc(F)cc4)CC3)cc2)cc1` [Example 53, 1-(4-fluorophenoxy)-N-(4′-(methoxymethyl)-[1,1′-biphenyl]-4-yl)cyclopropane-1-carboxamide], the hepatocyte CLint at 3 μM in data set [2] came out at 71 µL/min/1e6 cells. Also, the EC50 at hGPR88 receptor (GRP88 agonist activity (EC50)) was < 1 µM.

For the compound `COCc1ccc(-c2ccc(NC(=O)C(C)(C)Oc3ccccn3)cc2)cc1` [Example 7, N-(4′-(methoxymethyl)-[1,1′-biphenyl]-4-yl)-2-methyl-2-(pyridin-2-yloxy)propanamide], the hepatocyte CLint at 3 μM in data set [2] stood at 46 µL/min/1e6 cells. The EC50 at hGPR88 receptor (GRP88 agonist activity (EC50)) was in the range of 1 to 5 µM.

`COCc1ccc(-c2ccc(NC(=O)C(C)(C)Oc3ccc(Cl)cc3)cc2)cc1` [Example 3]: in data set [2], the hepatocyte CLint at 3 μM turned out to be 30 µL/min/1e6 cells. For the same compound, at hGPR88 receptor (GRP88 agonist activity (EC50)), the EC50 is < 1 µM.

As to `CCCc1ccc(C23CC(NC(=O)C4CC4c4ccccn4)(C2)C3)cc1` (racemic) [Example 35, (rac-trans)-N-(3-(4-propylphenyl)bicyclo[1.1.1]pentan-1-yl)-2-(pyridin-2-yl)cyclopropane-1-carboxamide], in data set [2], the “Mouse heps Clint” value turned out to be 49 μL/min/10^6 cells. Also, the EC50 at hGPR88 receptor (GRP88 agonist activity (EC50)) is < 1 µM.
